These results are taken from article PMC9383034, “Impact of microcin J25 on the porcine microbiome in a continuous culture model” (Frontiers in Microbiology, 2022).

Bridge positions count the residues as written; N and C are the ends. Ends that are not written are not given here.

One series relates to Salmonella Newport. The conditions noted are these: PolyFermS continuous culture simulating swine proximal colon; ref Naimi et al., 2020; cited from earlier work. An excerpt: Microcin J25 (MccJ25) is one of the most studied Gram-negative bacteriocins. This 21-amino-acid posttranslationally modified peptide produced by E. coli is a potent inhibitor of Enterobacteriaceae including Salmonella ([Rintoul et al., 2001]). It is a typical lasso peptide ([Arnison et al., 2013]; [Wang and Zhang, 2018]) which is characterized by an 8-residue macrolactam ring that is closed by an isopeptide bond between the N-terminus and the side chain carboxylate of a glutamate at position 8. The ring is threaded by the resulting tail that is locked inside by two bulky amino acid side chains ... || Enumerating specific bacterial groups by PMA-qPCR provided first a global information on the composition of the swine gut microbial community. Rifampicin induced important changes in Bacteroides, Lactobacillaceae and total 16S rRNA gene contents at the end of the colonic fermentation while no major effects were observed when MccJ25 and reuterin were added separately. […] Taxonomically, rifampici ... || Since MccJ25 appears to be a potent inhibitor of Salmonella Newport in the PolyFermS continuous culture model of the porcine proximal colonic microbiome as shown previously ([Naimi et al., 2020]), it should be considered as a potential alternative to antibiotics in pork production. […] This is important since it has been shown that changes in gut microbiota composition are associated with various metabolic disorders and likely subject the ...

Series [1] deals with porcine intestinal microbiota. Kind of series: 16S rRNA gene amplicon sequencing of microbiota in PolyFermS model (alpha/beta diversity, taxonomy). Particulars: for change in microbial composition (PCoA of Bray Curtis similarity matrix, PERMANOVA) compared to Salmonella alone: 24 h fermentation, two replicates F1 and F2, 0.4 mM MccJ25, 4 mM reuterin, p value 0.001 for significant differences; for change in microbial composition (PCoA of Bray Curtis similarity matrix, PERMANOVA) compared to Salmonella alone / change in alpha diversity (Shannon index and number of observed ASVs): 0.6 mM rifampicin; for change in alpha diversity (Shannon index and number of observed ASVs): rifampicin effect from the 8-h time point until end of fermentation, 0.4 mM MccJ25, 4 mM reuterin. The series is classed as cell-based, swine. The protocol: (§1) The in vitro fermentation model of the swine colon has been described elsewhere in detail ([Tanner et al., 2014]) and in our previous study ([Naimi et al., 2020]). […] Seeded with 30% (v/v) swine fecal beads, the inoculum reactor IR (useful volume of 250 mL) was fed fresh nutrient medium continuously (Figure 1A). Effluent from IR was used to continuously inoculate at 10% (v/v) the test reactors TR1 and TR2, which also received 90% (v/v) fresh medium (Figure 1B). The feed rate of the three reactors controlled using peristaltic pumps (model 120U, Watson-Marlow, Falmouth, Cornwall, United Kingdom) was set at 27 mL/h for a mean retention time in IR and TRs of 9 h. For the first 3 days, the IR was run in repeated-batch mode, the medium replaced every 12 h with fresh medium, in order to colonize fecal bead. Continuous feeding was then started, followed by 12 days of stabilization before connection to TR1 and TR2. Continuous culture was split into three periods: stabilization, treatment and wash. Conditions were kept constant in IR to assess the temporal stability of the system without any manipulation during the entire fermentation, while TR1 and TR2 were subjected to treatments for various periods. Between each period, culture was flushed from TR1 and TR2 as described previously ([Tanner et al., 2014]). TR1 and TR2 were subjected to a washing procedure with 10% chlorine solution to decontaminate and remove any historical effect of the previous periods. Briefly, TR1 and TR2 were disconnected from the IR, the entire medium was removed and reactors were filled with 10% freshly prepared chlorine solution. After stirring for 1 h, the reactors were rinsed twice by adding sterile distilled water and stirring for another hour. After complete removal of water and chlorine residues, reactors were filled with sterile fresh nutritive medium and reconnected to the IR. After each flush, they were stabilized for 3 days until a steady state was reached before starting the next treatment period.
The microbial community at different time points along the fermentation was analyzed by Illumina next-generation 16S rRNA gene amplicon sequencing. Taxonomic analysis were assessed by sequencing the bacterial 16S rRNA gene in the V3-V4 region using the amplification primers 341F (5′-CCTACGGGNGGCWGCAG-3′) and 805R (5′-[…]-3′) adapted to incorporate the transposon-based Illumina Nextera adapters (Illumina, United States) and a sample barcode sequence allowing multiplexed sequencing ([García-López et al., 2020]). High-throughput sequencing was performed at the Institute for Integrative Systems Biology (Université Laval, Québec, Canada) on a MiSeq platform using 2 × 300 bp paired-end sequencing (Illumina, United States). The raw sequence data have been submitted to European Nucleotide Archive (ENA) database with accession number PRJEB52762.
Raw data were processed using the DADA2 R package (version 1.14.1) ([Callahan et al., 2016]) to obtain exact amplicon sequence variants (ASVs) using the metabaRpipe R package^1. Briefly, forward and reverse reads were truncated after 260 and 250 nucleotides, respectively. After truncation, reads with expected error rates higher than three and four for forward and reverse reads, respectively, were removed. After filtering, error rate learning, ASV inference and denoising, reads were merged with a minimum overlap of 15 nucleotides. Chimeric sequences were identified and removed. Taxonomy was assigned to ASVs using DADA2 against SILVA database (v138.1) ([Glöckner et al., 2017]). Phylogenetic relatedness of ASVs, alpha diversity (Observed and Shannon indexes) and beta diversity analyses (Bray Curtis similarity matrix) were performed using the phyloseq R package ([McMurdie and Holmes, 2013]) and the DivComAnalyses packages^2.
The rarefied ASV table was used to calculate richness and diversity indices.

Series [2] relates to swine colonic microbiota metabolome. Kind of series: LC-MS metabolomic profiling of swine colonic microbiota in PolyFermS model. The series is classed as cell-based. Particulars: for impact on the metabolome of the swine colonic microbiota (LC-MS profiles, PCA): PolyFermS pellet extracts, 0.4 mM MccJ25, 4 mM reuterin, 0.6 mM rifampicin, MccJ25 effect decreased with time, rifampicin effect increased. How it is done: as §1
Resulting networks were visualized using Cytoscape 3.7.1.

The next series concerns swine colonic microbiota. Kind of series: PMA-qPCR counts of bacterial groups in PolyFermS swine colon fermentation model. The class given is cell-based. Particulars: for impact on total bacterial counts: PolyFermS, with Salmonella Newport 10^7 cfu/mL, 0.4 mM MccJ25 or 4 mM reuterin, 24 h. The protocol: as §1
The inhibitory activity of MccJ25, reuterin and rifampicin against Salmonella Newport and the major bacterial species constituting the swine colonic microbiota were quantified using propidium-monoazide-coupled quantitative polymerase chain reaction (PMA-qPCR). Samples collected from the reactors were treated with propidium monoazide (PMA dye, Biotium, Inc., Hayward, CA, United States) for viable bacteria counts as described previously ([Fernandez et al., 2016]). […]
The quantitative PCR (qPCR) was performed in MicroAmp® Fast Optical 96-Well Reaction Plates with Barcode (Life Technologies Inc., Burlington, ON, Canada) on an ABI 7500 Real-Time PCR System (Applied Biosystems, Streetsville, ON, Canada). Each sample was analyzed in duplicate. […]
On the technique in general: Real-time PCR tracks product formation cycle by cycle.

For the next series, the system named is E. coli. Particulars: reuterin 1.3 mM, without affecting other bacterial populations; ref Cleusix et al., 2008; cited from earlier work. How it is done: Enumerating specific bacterial groups by PMA-qPCR provided first a global information on the composition of the swine gut microbial community. Rifampicin induced important changes in Bacteroides, Lactobacillaceae and total 16S rRNA gene contents at the end of the colonic fermentation while no major effects were observed when MccJ25 and reuterin were added separately. […] Taxonomically, rifampici ...

The conditions of series [3]: cited from earlier work. The text has this:
(§2) Microcin J25 (MccJ25) is one of the most studied Gram-negative bacteriocins. This 21-amino-acid posttranslationally modified peptide produced by E. coli is a potent inhibitor of Enterobacteriaceae including Salmonella ([Rintoul et al., 2001]). It is a typical lasso peptide ([Arnison et al., 2013]; [Wang and Zhang, 2018]) which is characterized by an 8-residue macrolactam ring that is closed by an isopeptide bond between the N-terminus and the side chain carboxylate of a glutamate at position 8. The ring is threaded by the resulting tail that is locked inside by two bulky amino acid side chains ...

The test system of the next series is weaned pigs. The conditions noted are these: MccJ25 purity above 99%; ref Yu et al., 2017; cited from earlier work.
Source text: as §2

In series [4] the test system is clinically relevant veterinary multidrug-resistant strains. The conditions noted are these: highly purified MccJ25; ref Yu et al., 2022; cited from earlier work. The text has this:
(§3) The widespread use of antibiotics in livestock production has led to the emergence of antibiotic-multiresistant bacteria, which can infect humans via the food chain. The use of antibiotics as growth promoters has been banned outright in several industrialized countries, which has increased the urgency of the search for alternatives. Researchers began decades ago to propose bacteriocins as substitutes. In addition to their natural origin, being mostly indigenous to the gut microbiota, and their potent inhibitory activity, bacteriocins are most often endowed with a narrow spectrum of antibacteri ...

The next series concerns E. coli infection. Particulars: highly purified MccJ25; ref Yu et al., 2022; cited from earlier work.
Source text: as §3

Where [5] appears, read: PolyFermS TR1/TR2, Salmonella Newport 10^7 cfu/mL + 0.6 mM rifampicin, after 12 h, followed by regrowth.

For the compound `O=CCCO` [reuterin, 3-hydroxypropanal], in the series with Salmonella Newport, the “inhibitory activity against Salmonella Newport” value (shortened to “inhibitory activity”) was “did not inhibit Salmonella Newport”. Also, in series [1], the “change in microbial composition (PCoA of Bray Curtis similarity matrix, PERMANOVA) compared to Salmonella alone” value (shortened to “change in microbial composition”) is on record as “No significant changes”; the “change in alpha diversity (Shannon index and number of observed ASVs)” value is “did not induce a remarkable changes”. Further, the “impact on the metabolome of the swine colonic microbiota (LC-MS profiles, PCA)” value in [2] is given as “no impact”. Further, the “impact on total bacterial counts” value in the series with swine colonic microbiota is given as “did not induce significant impact”. The “effect on E. coli population” value in the series with E. coli was “significantly and selectively decrease E. coli”.

As to `CO[C@H]1/C=C/O[C@@]2(C)Oc3c(C)c(O)c4c(O)c(c(/C=N/N5CCN(C)CC5)c(O)c4c3C2=O)NC(=O)/C(C)=C\C=C\[C@H](C)[C@H](O)[C@@H](C)[C@@H](O)[C@@H](C)[C@H](OC(C)=O)[C@@H]1C` [rifampicin, Rifampicin], the “inhibitory activity” value in the series with Salmonella Newport was “inhibits Salmonella growth”. Besides, in series [1] (0.6 mM rifampicin + Salmonella Newport, at 12 h, enriched from the 8-h time point), the “relative abundance of Escherichia-Shigella (ASV002)” value is “more than 44%”. Moreover, the “taxonomic change at the phylum level” value in [1] (0.6 mM rifampicin + Salmonella Newport, from the 6-h time point, both reactors F1 and F2) was “increase of the relative abundance of Proteobacteria and Firmicutes phyla”. In series [1], the “change in microbial composition” value is reported as “significant differences”; the “change in alpha diversity (Shannon index and number of observed ASVs)” value is reported as “significant decrease”. Further, the “impact on the metabolome of the swine colonic microbiota (LC-MS profiles, PCA)” value in series [2] is recorded as “significant effects”. Besides, in series [2] (PolyFermS, 0.6 mM rifampicin + Salmonella Newport, extracted ion chromatograms), the “change in amino acid levels in microbiota metabolome” value was “increase in the levels of Leu/Ile, Phe, Tyr and Trp amino acids”. In the series on swine colonic microbiota (setting [5]), the “reduction of Bacteroides counts” value is “approximately 1 log” and the “reduction of total cell counts” value was “approximately 1 log”.

Regarding “Microcin J25 (GGAGHVPEYFVGIGTPISFYG; lactam N-8; also: lasso macrolactam, places not given here; UniProt Q9X2V7 38-58, looked up) [MccJ25, 21-amino-acid posttranslationally modified lasso peptide bacteriocin produced by E. coli; 8-residue macrolactam ring closed by isopeptide bond to Glu8]”, in series [3], the “stability to denaturing conditions, high temperatures, extreme pHs and certain proteases” value is “remarkable stability”. Further, the “effect of supplemented diet on weaned pigs” value in the series on weaned pigs was “improve growth performance, and attenuate diarrhea and systematic inflammation”. In addition, the “bactericidal activity in vitro” value in [4] was “efficient bactericidal activity”. Moreover, the effect on inflammation result in the series with E. coli infection is listed as “decrease inflammation”. Besides, the “inhibitory activity” value in the series on Salmonella Newport is “remained potent over 24 h”. In [1], the “change in microbial composition” value is “significant differences”; the “change in alpha diversity (Shannon index and number of observed ASVs)” value was “did not induce a remarkable changes”. In addition, in [2] (PolyFermS, 0.4 mM MccJ25 + Salmonella Newport, 24 h), the “metabolomics profile after 24 h treatment” value is “close to that before treatment”. The “impact on total bacterial counts” value in the series on swine colonic microbiota is reported as “did not induce significant impact”.
